≈ marks a conversion by molar mass, not a printed value. Where “and” joins values, the source holds several entries; their conditions need not be identical. Equal values may be shown once. Read-outs that look alike come from different tables or passages of the source.
Tested on: Phytophthora infestans (resistant to metalaxyl)
Type: in vivo
[1] = 16 mg/L active ingredient, 7 days post inoculation, Table 8
[2] = 62 mg/L active ingredient, 7 days post inoculation, Table 8
[3] = 250 mg/L active ingredient, 7 days post inoculation, Table 8
[4] = 250 mg/L active ingredient, Table 27
[5] = 500 mg/L active ingredient, Table 27
[6] = 1000 mg/L active ingredient, Table 27
[7] = 16 mg/L active ingredient, 5 days post inoculation, Table 2
[8] = 16 mg/L active ingredient, 6 day post inoculation, Table 6
[9] = 62 mg/L active ingredient, 5 days post inoculation, Table 2
[10] = 62 mg/L active ingredient, 6 day post inoculation, Table 6
[11] = 250 mg/L active ingredient, 5 days post inoculation, Table 2
[12] = 250 mg/L active ingredient, 6 day post inoculation, Table 6
[13] = 1000 mg/L active ingredient, 6 day post inoculation, Table 6
[14] = 25 mg/L active ingredient, 5 days post inoculation, Table 12
[15] = 125 mg/L active ingredient, 4 day post inoculation, Table 7
[16] = 250 mg/L active ingredient, 4 days post inoculation, Table 11
[17] = Cultivar Cara, 16 mg/L active ingredient, 5 days post inoculation, Table 3
[18] = Cultivar Cara, 62 mg/L active ingredient, 5 days post inoculation, Table 3
[19] = Cultivar Cara, 250 mg/L active ingredient, 5 days post inoculation, Table 3
[20] = Cultivar Cara, 1000 mg/L active ingredient, 5 days post inoculation, Table 3
[21] = Cultivar Draga, 16 mg/L active ingredient, 5 days post inoculation, Table 3
[22] = Cultivar Draga, 62 mg/L active ingredient, 5 days post inoculation, Table 3
[23] = Cultivar Draga, 250 mg/L active ingredient, 5 days post inoculation, Table 3
[24] = Cultivar Draga, 1000 mg/L active ingredient, 5 days post inoculation, Table 3

[Cu+2].[OH-].[OH-] [Cu(OH)2, copper hydroxide]
Percent Disease Control (4 mg/L active ingredient, 7 days post inoculation, Table 8): 0%
Percent Disease Control [1]: 0%
Percent Disease Control [2]: 13%
Percent Disease Control [3]: 75%
ED90 (7 days post inoculation, Table 8): 298 µg/mL

CSC(=O)c1cccc2nnsc12 [BION, Acibenzolar-s-methyl]
Percent Disease Control [4]: 13%
Percent Disease Control [5]: 25%
Percent Disease Control [6]: 78%
ED90 (Table 27): 1173 µg/mL (≈ 5580 µM)

CCNC(=O)NC(=O)/C(C#N)=N/OC [Cymoxanil]
Percent Disease Control (4 mg/L active ingredient, 5 days post inoculation, Table 2): 36%
Percent Disease Control [7]: 73%
Percent Disease Control [8]: 83%
Percent Disease Control [9]: 64%
Percent Disease Control [10]: 86%
Percent Disease Control [11]: 98%
Percent Disease Control [12]: 91%
Percent Disease Control [13]: 100%
ED90 (in vivo): 128 µg/mL and 183 µg/mL

CCCCCCCCOC(=O)CC(C)NC(=O)c1ccccc1 (racemic) [N-benzoyl octyl ester derivative of BABA]
Percent Disease Control [1]: 3%
Percent Disease Control (16 mg/L active ingredient, 7 days post inoculation, Table 9): 0%
Percent Disease Control (16 mg/L active ingredient, 7 days post inoculation, Table 10): 0%
Percent Disease Control [14]: 15%
Percent Disease Control [2]: 25%
Percent Disease Control (62 mg/L active ingredient, 7 days post inoculation, Table 9): 0%
Percent Disease Control (62 mg/L active ingredient, 7 days post inoculation, Table 10): 0%
Percent Disease Control [15]: 15%
Percent Disease Control (250 mg/L active ingredient, 4 day post inoculation, Table 7): 25%
Percent Disease Control [16]: 63%
Percent Disease Control [3]: 25%
Percent Disease Control (250 mg/L active ingredient, 7 days post inoculation, Table 9): 0%
Percent Disease Control (250 mg/L active ingredient, 7 days post inoculation, Table 10): 0%
Percent Disease Control (500 mg/L active ingredient, 4 days post inoculation, Table 11): 69%
Percent Disease Control (500 mg/L active ingredient, 5 days post inoculation, Table 12): 25%
Percent Disease Control (1000 mg/L active ingredient, 4 day post inoculation, Table 7): 50%
Percent Disease Control (1000 mg/L active ingredient, 4 days post inoculation, Table 11): 85%
Percent Disease Control (1000 mg/L active ingredient, 5 days post inoculation, Table 12): 50%
Percent Disease Control (1000 mg/L active ingredient, 7 days post inoculation, Table 8): 75%
Percent Disease Control (1000 mg/L active ingredient, 7 days post inoculation, Table 9): 25%
Percent Disease Control (1000 mg/L active ingredient, 7 days post inoculation, Table 10): 25%
Percent Disease Control (2000 mg/L active ingredient, 4 day post inoculation, Table 7): 53%
Percent Disease Control (2000 mg/L active ingredient, 4 days post inoculation, Table 11): 89%
Percent Disease Control (2000 mg/L active ingredient, 5 days post inoculation, Table 12): 53%

CC(N)CC(=O)O (stereo not drawn) [BABA, DLβ-amino-butanoic acid]
Percent Disease Control (16 mg/L active ingredient, 5 day post inoculation, Table 4): 3%
Percent Disease Control [7]: 3%
Percent Disease Control [8]: 22%
Percent Disease Control (16 mg/L active ingredient, 7 days, Table 5): 14%
Percent Disease Control (32 mg/L active ingredient, 5 days post inoculation, Table 1): 0%
Percent Disease Control (62 mg/L active ingredient, 5 day post inoculation, Table 4): 24%
Percent Disease Control [9]: 24%
Percent Disease Control [10]: 22%
Percent Disease Control (62 mg/L active ingredient, 7 days, Table 5): 14%
Percent Disease Control (125 mg/L active ingredient, 5 days post inoculation, Table 1): 0%
Percent Disease Control (250 mg/L active ingredient, 5 day post inoculation, Table 4): 18%
Percent Disease Control (250 mg/L active ingredient, 5 days post inoculation, Table 1): 0%
Percent Disease Control [11]: 18%
Percent Disease Control [12]: 22%
Percent Disease Control (250 mg/L active ingredient, 7 days, Table 5): 14%
Percent Disease Control [4]: 38%
Percent Disease Control [5]: 75%
Percent Disease Control (1000 mg/L active ingredient, 5 day post inoculation, Table 4): 64%
Percent Disease Control (1000 mg/L active ingredient, 5 days post inoculation, Table 1): 13%
Percent Disease Control (1000 mg/L active ingredient, 5 days post inoculation, Table 2): 64%
Percent Disease Control [13]: 69%
Percent Disease Control (1000 mg/L active ingredient, 7 days, Table 5): 36%
Percent Disease Control [6]: 93%
ED90 (7 days): 2617 µg/mL (≈ 25400 µM)
Percent Disease Control [17]: 9%
Percent Disease Control [18]: 9%
Percent Disease Control [19]: 9%
Percent Disease Control [20]: 24%
Percent Disease Control [21]: 0%
Percent Disease Control [22]: 0%
Percent Disease Control [23]: 0%
Percent Disease Control [24]: 53%

Cc1ccc(C(C)NC(=O)[C@@H](NC(=O)OC(C)C)C(C)C)cc1 (some centres unmarked) [Fencaramid]
Percent Disease Control (2 mg/L active ingredient, 4 day post inoculation, Table 7): 0%
Percent Disease Control (2 mg/L active ingredient, 5 days post inoculation, Table 12): 0%
Percent Disease Control (8 mg/L active ingredient, 4 day post inoculation, Table 7): 50%
Percent Disease Control (8 mg/L active ingredient, 5 days post inoculation, Table 12): 50%
Percent Disease Control [14]: 100%
Percent Disease Control (31 mg/L active ingredient, 5 days post inoculation, Table 12): 98%
Percent Disease Control (32 mg/L active ingredient, 4 day post inoculation, Table 7): 98%
Percent Disease Control [15]: 100%
ED90 (4 day post inoculation, Table 7): 19 µg/mL (≈ 59.3 µM)
ED90 (5 days post inoculation, Table 12): 19 µg/mL (≈ 59.3 µM)

O=C1c2ccccc2C(=O)N1SC(Cl)(Cl)Cl [FOLPET, Folpet]
Percent Disease Control (4 mg/L active ingredient, 4 days post inoculation, Table 11): 70%
Percent Disease Control (16 mg/L active ingredient, 4 days post inoculation, Table 11): 75%
Percent Disease Control [8]: 81%
Percent Disease Control (62 mg/L active ingredient, 4 days post inoculation, Table 11): 90%
Percent Disease Control [10]: 95%
Percent Disease Control [16]: 95%
Percent Disease Control [12]: 98%
Percent Disease Control [13]: 100%
ED90 (4 days post inoculation, Table 11): 141 µg/mL (≈ 475 µM)
ED90 (6 day post inoculation, Table 6): 84 µg/mL (≈ 283 µM)

CCO[PH](=O)O [Fosetyl − Al, phosetyl-aluminium]
Percent Disease Control [17]: 9%
Percent Disease Control [18]: 24%
Percent Disease Control [19]: 24%
Percent Disease Control [20]: 70%
ED90 (Cultivar Cara, 5 days post inoculation, Table 3): 1390 µg/mL (≈ 12600 µM)
Percent Disease Control [21]: 33%
Percent Disease Control [22]: 33%
Percent Disease Control [23]: 50%
Percent Disease Control [24]: 93%
ED90 (Cultivar Draga, 5 days post inoculation, Table 3): 856 µg/mL (≈ 7780 µM)

Reference: US6414019B1, “Synergistic mixtures of selected amino acids” (Agrogene Ltd., priority 1997, dated 2002)
